Experimental data: patent US11180423B2, “Compositions and methods for micronutrient introduction” (CHS INC., priority 2014, dated 2021)

How the values were obtained:
[1] = test system: Zea mays (variety DKC 43-48); assay: 2012 Corn Trial—St. Cloud, Minn.; format: in vivo; settings: in furrow, compared to untreated controls
Experimental: A corn trial utilizing a composition of the instant disclosure was performed in St. Cloud, Minn., in 2012. In this example, the composition comprised ortho-ortho EDDHA as the exemplary ligand.
In this example, Zea mays (variety DKC 43-48) seeds were planted on May 15, 2012. Soil moisture was normal and the seed bed was compacted. The tillage type was conventional till. The treated crop area for the instant example was 300 square feet (ft^2). The study design was randomized complete block (RCB) with four replications.
Corn plants were harvested on Oct. 10, 2012. Thereafter, the yield of corn plants administered the composition comprising ortho-ortho EDDHA was compared to the yield of control corn plants that were untreated.

[2] = test system: corn variety Pioneer 8640 Roundup Ready; assay: 2013 Corn Trial—Casselton, N. Dak.; format: in vivo; settings: compared to untreated controls
[3] = test system: corn variety Dekalb 45-51; assay: 2013 Corn Trial—Brookings, S. Dak.; format: in vivo; settings: compared to untreated controls
Experimental: A corn trial utilizing a composition of the instant disclosure was performed near Brookings, S. Dak., in 2013. In this example, the composition comprised ortho-ortho EDDHA as the exemplary ligand.
In this example, corn variety Dekalb 45-51 was planted on May 14, 2013. Corn was planted to a population of 32,000 plants per acre, and a 30-inch row spacing was used. The soil type was Brandt silty clay loam.
Corn plants were harvested on Oct. 24, 2013. Thereafter, the yield of corn plants administered the composition comprising ortho-ortho EDDHA was compared to the yield of control corn plants that were untreated.

[4] = test system: glycine max (variety PB0954RR) soybean; assay: 2013 Soybean Trial—St. Cloud, Minn.; format: in vivo; settings: compared to untreated controls
Experimental: A soybean trial utilizing a composition of the instant disclosure was performed in St. Cloud, Minn., in 2013. In this example, the composition comprised ortho-ortho EDDHA as the exemplary ligand.
In this example, glycine max (variety PB0954RR) soybean seeds were planted on Jun. 17, 2013. The tillage type was conventional till. The treated crop area for the instant example was 300 square feet (ft^2). The study design was randomized complete block (RCB) with four replications.
Soybean plants were harvested on Oct. 11, 2013. Thereafter, yield of soybean plants administered the composition comprising ortho-ortho EDDHA was compared to the yield of control soybean plants that were untreated.

[5] = test system: corn seeds; assay: 2013 Corn Seed Trial—Brookings, S. Dak.; format: in vivo; settings: corn seed treatment; compared to untreated controls
Experimental: A corn seed trial utilizing a composition of the instant disclosure was performed in Brookings, S. Dak., in 2013. In this example, the composition comprised ortho-ortho EDDHA as the exemplary ligand (i.e., “WC101”). The study design was randomized complete block (RCB) with four replications. […] [table] Plot unit sizes were approximately 10 feet by 40 feet according to the disclosed layout of FIG. 9.

[6] = test system: corn; assay: 2014 Corn Trial—Scandia, Kans.; format: in vivo; settings: starter fertilizer treatment groups; for yield response (effect in words): FIG. 1, Table 8, improvement especially for groups without micronutrients (10-34-0, 9-18-9)
Experimental: A corn trial utilizing a composition of the instant disclosure was performed near Scandia, Kans., in 2014. In this example, the composition comprised ortho-ortho EDDHA as the exemplary ligand (i.e., “WC101”).
In this example, corn was planted on May 2, 2014. Treatments were applied as starter applications at planting with an application volume of 6 gpa. Weed control was completed as needed to keep weed free with maintenance sprays.
Data collected included yield (bu/acre), test weight, moisture, preliminary soil analysis, and plant tissue and grain analysis. Grain yield was measured harvesting the two center rows with a plot combine. Total phosphorus (P) content in plant tissue was measured for the ear leaf and grain P concentration was measured after harvest with grain analysis for total P content.
Fertilizer treatment mixes were completed before application. […] Although treatment application was complicated in some instances, the rates and placement for the instant example were believed to be within acceptable parameters. Grain yield was measured harvesting the two center rows with a plot combine. Total phosphorus (P) content in plant tissue was measured for the ear leaf and grain P concentration was measured after harvest with grain analysis for total P content.

[7] = Visual observations of fertilizer treatment mixes; format: physicochemical; settings: various fertilizers, for instance 9-18-9

## O=C(O)C(NCCNC(C(=O)O)c1ccccc1O)c1ccccc1O (stereo not shown) [ortho-ortho EDDHA]
[1]
  yield increase: 8.5 bushels per acre
[2]
  yield increase: 4.6 bushels per acre
[3]
  yield increase: 8.2 bushels per acre
[4]
  yield increase: 5.1 bushels per acre
[5]
  emergence increase: 3.5%
  yield increase: 1.4 bushels per acre
[6]; listed as WC101
  yield response (effect in words): improvement
[6]; listed as ligand
  yield response (effect in words): statistically significant effect
[6]; FIG. 2, Table 8, listed as WC101
  plant tissue phosphorus (P) response, ear leaf (effect in words): improvement
[6]; FIG. 2, Table 8, listed as ligand
  plant tissue phosphorus (P) response, ear leaf (effect in words): statistically significant effect
[6]; FIG. 3, Table 8, listed as WC101
  grain P removal response (effect in words): improvement
[6]; FIG. 3, Table 8, listed as ligand
  grain P removal response (effect in words): statistically significant effect
[7]
  compatibility with fertilizers in treatment mixes: possible compatibility issues
